# Several values for one entry are separate records, joined by “and”; a condition that tells them apart may be missing. Identical values can stand only once. Like-named read-outs stand apart in the source and are kept apart here.
# Key:
# hMC4-R [1] = target: T1, hMC4-R (Homo sapiens (Human), UniProt P32245); test: High and low density hMC4-R functional assay (cAMP, HEK293-T-REx-MC4-R cells); assay type: cell-based; conditions: for Emax: NDP-α-MSH = 100%
# [2] = Food intake and body weight change; assay type: in vivo, Sprague-Dawley rats; conditions: male rats, 1.0 mg/kg s.c., mean ± SEM; for FI 0-4 h / FI 0-24 h: food intake; for BW change 0-24 h: body weight
# Description: 7.4 Food Intake and Body Weight Change.
# Change in food intake and body weight was evaluated for selected peptides administered by subcutaneous injection route. Male Sprague-Dawley rats were obtained from Hilltop Lab Animals, Inc. (Scottdale, Pa.). Animals were individually housed in conventional polystyrene hanging cages and maintained on a controlled 12 hour on/off light cycle. Water and pelleted food (ProLab RMH 2500, W.F. Fisher & Son Inc.) was provided ad libitum. The rats were dosed subcutaneously with vehicle (3.2% mannitol/50 mM Tris buffer) or selected peptides (1.0 mg/kg). The changes in food intake for the 4 and 24 hour periods after dosing and the changes in body weight for the 24 hour period after dosing were determined. The changes in body weight and food intake for the 48 hour and 72 hour periods after dosing was also measured to determine reversal of changes in body weight and food intake effects back to baseline levels (not shown).
# [3] = Induction of penile erection; conditions: male rats; for Total number of PE/rat 0-1 h: mean ± SEM; for % Responders: rats showing at least one erection
# Description: 7.5 Induction of Penile Erection.
# (§1) The ability of peptides of the present invention to induce penile erection (PE) in male rats was evaluated with selected peptides. Male Sprague-Dawley rats weighing 250-300 g were kept on a 12 hour on/off light cycle with food and water ad libitum. All behavioral studies were performed between 9 a.m. and 4 p.m.
# (§2) Corresponding vehicle controls (3.2% mannitol/50 mM Tris buffer) were run in parallel.
# hMC4-R [4] = target: T1, hMC4-R; test: Competitive inhibition binding assay using [I125]-NDP-α-MSH, hMC4-R; conditions: membranes of HEK-293 cells expressing recombinant hMC4-R, read-out: MC4-R Ki
# [5] = in vivo, sc
# Description: 7.5 Induction of Penile Erection.
# as §1, §2
# MC1-R = test: Competitive inhibition binding assay using [I125]-NDP-α-MSH, MC1-R; conditions: membranes of B-16 mouse melanoma cells (endogenous MC1-R), in some instances HEK-293 hMC1-R
# In short: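 Radioligand displacement on membranes from B-16 mouse melanoma cells (endogenous MC1-R) or HEK-293 expressing recombinant hMC1-R, with 0.1 nM [I125]-NDP-α-MSH and increasing peptide concentrations in HEPES pH 7.5 buffer, 60 min at 37° C.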
# [6] = 0.1 ng/mL Doxycycline (low density hMC4-R system), read-out: Intrinsic Activity (%)
# [7] = 10 ng/mL Doxycycline (high density hMC4-R system), read-out: Intrinsic Activity (%)
# [8] = 0.1 ng/mL Doxycycline (low density hMC4-R system)
# [9] = 10 ng/mL Doxycycline (high density hMC4-R system)
# T1 sequence (P32245 whole entry): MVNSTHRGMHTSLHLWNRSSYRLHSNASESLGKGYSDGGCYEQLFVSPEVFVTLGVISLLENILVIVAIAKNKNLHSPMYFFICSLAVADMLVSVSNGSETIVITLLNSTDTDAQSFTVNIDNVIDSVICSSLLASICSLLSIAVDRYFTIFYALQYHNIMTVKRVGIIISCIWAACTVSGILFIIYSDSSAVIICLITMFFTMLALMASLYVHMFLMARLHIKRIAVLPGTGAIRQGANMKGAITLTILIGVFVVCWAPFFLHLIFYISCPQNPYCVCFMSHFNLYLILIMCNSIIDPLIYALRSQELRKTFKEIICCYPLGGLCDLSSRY
SMILES,"Emax (hMC4-R [1]; Table 1, mean values, 0.1 ng/mL Doxycycline (low density hMC4-R system), read-out: Intrinsic activity (%)) [%]",FI 0-4 h [2],FI 0-24 h [2],Total number of PE/rat 0-1 h ([3]; 3.0 mg/kg s.c.),% Responders ([3]; 3.0 mg/kg s.c.) [%],Ki (hMC4-R [4]) [nM],Emax (hMC4-R [1]; [6]) [%],Emax (hMC4-R [1]; [7]) [%],BW change 0-24 h [2] [g],Total number of PE/rat 0-1 h ([5]; 1 mg/kg),Total number of PE/rat 0-1 h ([5]; 3 mg/kg),% Responders ([3]; 1.0 mg/kg s.c.) [%],Ki (MC1-R) [nM],EC50 (hMC4-R [1]; [8]) [nM],Total number of PE/rat 0-1 h ([3]; 1.0 mg/kg s.c.),EC50 (hMC4-R [1]; [9]) [nM]
"CC(=O)N[C@@H](CCCNC(=N)N)C(=O)N[C@H]1CCC(=O)NCCC[C@@H](C(=O)O)NC(=O)[C@H](Cc2c[nH]c3ccccc23)NC(=O)[C@H](CCCNC(=N)N)NC(=O)[C@@H](Cc2ccccc2)NC(=O)[C@H](CCN)NC1=O [Ref Ex 2, Ac-Arg-cyclo(Glu-Dab-D-Phe-Arg-Trp-Orn)-OH, reference compound]",92,3.17 ± 0.42 g and 4.41 ± 0.48 g and 2.80 ± 0.27 g,19.98 ± 0.60 g and 20.84 ± 1.01 g and 21.81 ± 1.04 g,6.0 ± 0.44,100,–,–,–,–,–,–,–,–,–,–,–
"CC(=O)N[C@@H](CCCNC(=N)N)C(=O)N[C@H]1CCC(=O)NCCC[C@@H](C(N)=O)NC(=O)[C@H](Cc2c[nH]c3ccccc23)NC(=O)[C@H](CCCNC(=N)N)NC(=O)[C@@H](Cc2ccc(C#N)cc2)NC(=O)[C@H](CCC(N)=O)NC1=O [Example 46, Ac-Arg-cyclo(Glu-Gln-D-Phe(4-CN)-Arg-Trp-Orn)-NH2]",–,3.71 ± 0.68 g,20.56 ± 1.14 g,–,86,4,40,97,-0.29 ± 0.55,4.9 ± 1.1,4.4 ± 1.1,100,–,–,–,–
"CC(=O)N[C@@H](CCCNC(=N)N)C(=O)N[C@H]1CCC(=O)NCCC[C@@H](C(N)=O)NC(=O)[C@H](Cc2c[nH]c3ccccc23)NC(=O)[C@H](CCCNC(=N)N)NC(=O)[C@@H](Cc2ccc(C#N)cc2)NC(=O)[C@H](CC(N)=O)NC1=O [Example 43, Ac-Arg-cyclo(Glu-Asn-D-Phe(4-CN)-Arg-Trp-Orn)-NH2]",–,6.85 ± 0.55 g,24.44 ± 0.85 g,6.0 ± 0.76,100,5,43,100,0.45 ± 0.35,–,–,29,870,1,1.7 ± 0.36,–
"CC(=O)N[C@H](CCCNC(=N)N)C(=O)N[C@H]1CC(=O)NCCCC[C@@H](C(N)=O)NC(=O)[C@H](Cc2c[nH]c3ccccc23)NC(=O)[C@H](CCCNC(=N)N)NC(=O)[C@@H](Cc2cccc(Cl)c2)NC(=O)[C@H](CCC(N)=O)NC1=O [Example 80, Ac-D-Arg-cyclo(Asp-Gln-D-Phe(3-Cl)-Arg-Trp-Lys)-NH2]",–,–,–,–,–,7,13,86,–,–,–,–,1750,6,–,0.65
"CC(=O)N[C@@H](CCCNC(=N)N)C(=O)N[C@H]1CCC(=O)NCCC[C@@H](C(N)=O)NC(=O)[C@H](Cc2c[nH]c3ccccc23)NC(=O)[C@H](CCCNC(=N)N)NC(=O)[C@@H](Cc2ccccc2Cl)NC(=O)[C@H]([C@@H](C)O)NC1=O [Example 32, Ac-Arg-cyclo(Glu-Thr-D-Phe(2-Cl)-Arg-Trp-Orn)-NH2]",–,–,–,–,–,11,34,96,–,–,–,–,540,18,–,–
"CC(=O)N[C@@H](CCCNC(=N)N)C(=O)N[C@H]1CCC(=O)NCCC[C@@H](C(N)=O)NC(=O)[C@H](Cc2c[nH]c3ccccc23)NC(=O)[C@H](CCCNC(=N)N)NC(=O)[C@@H](Cc2ccccc2F)NC(=O)[C@H](CC(N)=O)NC1=O [Example 84, Ac-Arg-cyclo(Glu-Asn-D-Phe(2-Cl)-Arg-Trp-Orn)-NH2]",–,–,–,–,–,7,78,97,–,–,–,–,245,–,–,0.09
"CC(=O)N[C@@H](CCCNC(=N)N)C(=O)N[C@H]1CCC(=O)NCCC[C@@H](C(N)=O)NC(=O)[C@H](Cc2c[nH]c3ccccc23)NC(=O)[C@H](CCCNC(=N)N)NC(=O)[C@@H](Cc2ccc(Cl)c(Cl)c2)NC(=O)[C@H](CCN)NC1=O [Example 5, Ac-Arg-cyclo(Glu-Dab-D-Phe(3,4-diCl)-Arg-Trp-Orn)-NH2]",–,–,–,–,–,0.055,5,92,–,–,–,–,0.2,–,–,0.38
"COc1ccc(C[C@H]2NC(=O)[C@H](CCN)NC(=O)[C@@H](NC(=O)[C@H](CCCNC(=N)N)NC(C)=O)CCC(=O)NCCC[C@@H](C(N)=O)NC(=O)[C@H](Cc3c[nH]c4ccccc34)NC(=O)[C@H](CCCNC(=N)N)NC2=O)cc1 [Example 16, Ac-Arg-cyclo(Glu-Dab-D-Phe(4-OMe)-Arg-Trp-Orn)-NH2]",–,–,–,–,–,0.25,28,97,–,–,–,–,0.15,0.15,–,0.16
"CC(=O)N[C@@H](CCCNC(=N)N)C(=O)N[C@H]1CCC(=O)NCCC[C@@H](C(N)=O)NC(=O)[C@H](Cc2c[nH]c3ccccc23)NC(=O)[C@H](CCCNC(=N)N)NC(=O)[C@@H](Cc2ccc(F)cc2)NC(=O)[C@@H]2CCCN2C1=O [Example 67, Ac-Arg-cyclo(Glu-Pro-D-Phe(4-F)-Arg-Trp-Orn)-NH2]",–,4.20 ± 0.66 g,21.51 ± 1.27 g,3.3 ± 1.0,100,5,38,99,-0.05 ± 0.39,–,–,86,130,1,2.3 ± 0.42,0.14
"CC(=O)N[C@@H](CCCNC(=N)N)C(=O)N[C@H]1CCC(=O)NCCC[C@@H](C(N)=O)NC(=O)[C@H](Cc2c[nH]c3ccccc23)NC(=O)[C@H](CCCNC(=N)N)NC(=O)[C@@H](Cc2ccccc2Cl)NC(=O)[C@H](CO)NC1=O [Example 31, Ac-Arg-cyclo(Glu-Ser-D-Phe(2-Cl)-Arg-Trp-Orn)-NH2]",–,–,–,–,–,8,33,98,–,–,–,–,300,7,–,–
"CC(=O)N[C@@H](CCCNC(=N)N)C(=O)N[C@H]1CCC(=O)NCCC[C@@H](C(N)=O)NC(=O)[C@H](Cc2c[nH]c3ccccc23)NC(=O)[C@H](CCCNC(=N)N)NC(=O)[C@@H](Cc2ccc(Cl)cc2Cl)NC(=O)[C@H](CCN)NC1=O [Example 4, Ac-Arg-cyclo(Glu-Dab-D-Phe(2,4-diCl)-Arg-Trp-Orn)-NH2]",–,–,–,–,–,0.055,11,100,–,–,–,–,0.5,–,–,0.245
"CC(=O)N[C@@H](CCCNC(=N)N)C(=O)N[C@H]1CCC(=O)NCCC[C@@H](C(N)=O)NC(=O)[C@H](Cc2c[nH]c3ccccc23)NC(=O)[C@H](CCCNC(=N)N)NC(=O)[C@@H](Cc2ccc(C#N)cc2)NC(=O)[C@@H]2C[C@@H](O)CN2C1=O [Example 40, Ac-Arg-cyclo(Glu-Hyp-D-Phe(4-CN)-Arg-Trp-Orn)-NH2]",–,–,–,–,–,2,8,93,–,–,–,–,880,–,–,0.5
"CC(=O)N[C@@H](CCCNC(=N)N)C(=O)N[C@H]1CCC(=O)NCCC[C@@H](C(N)=O)NC(=O)[C@H](Cc2c[nH]c3ccccc23)NC(=O)[C@H](CCCNC(=N)N)NC(=O)[C@@H](Cc2ccc(F)cc2)NC(=O)[C@@H]2C[C@@H](O)CN2C1=O [Example 60, Ac-Arg-cyclo(Glu-Hyp-D-Phe(4-F)-Arg-Trp-Orn)-NH2]",–,–,–,–,–,1,62,95,–,–,–,–,89,0.45,–,0.14
